BindingDB's records for doi:10.1016/j.bmcl.2003.08.082 (The University of Huddersfield, 2003)

Target: Beta-lactamase (Enterobacter cloacae, UniProt P05364)
Test: Inhibitor activity against Beta-lactamase, derived from the Gram negative bacteria Enterobacter cloacae at pH 7
Details: read-out: kon (M-1-s-1)

Sequence of Beta-lactamase (P05364 whole entry): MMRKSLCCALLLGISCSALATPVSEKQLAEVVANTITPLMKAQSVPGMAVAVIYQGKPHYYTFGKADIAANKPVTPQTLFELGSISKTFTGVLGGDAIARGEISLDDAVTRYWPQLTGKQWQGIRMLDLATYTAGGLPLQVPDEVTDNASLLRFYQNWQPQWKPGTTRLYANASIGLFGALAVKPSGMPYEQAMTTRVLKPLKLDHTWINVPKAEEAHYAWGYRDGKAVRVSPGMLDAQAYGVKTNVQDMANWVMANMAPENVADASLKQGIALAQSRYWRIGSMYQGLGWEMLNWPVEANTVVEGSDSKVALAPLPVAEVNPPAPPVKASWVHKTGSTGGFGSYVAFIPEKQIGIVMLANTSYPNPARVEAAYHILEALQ

| SMILES | kon [M⁻¹ s⁻¹] |
| --- | --- |
| O=C(c1ccccc1)N1CCS1(=O)=O | 163 |
| CC(C)C1CN(C(=O)c2ccccc2)S1(=O)=O (configuration not stated) | 0.07 |
